The test system of test [1] is human COX-2 promoter (phPES2). The test can be described thus: Human COX-2 promoter (phPES2) luciferase reporter activity in EOMA cells. The format is cell-based. The note with it: mouse hemangioendothelioma cells (EOMA); 100 nM for 5 hours. Here is the method: Cells transfected with phPES2(−1432/+59) luciferase reporter were treated with PMA (100 nM, positive control). Results from one representative experiment is shown (*P<0.01, […], n=4).
EOMA cultures (3×10^5 cells/well) on 6-well plate were grown one day before the transfection. To measure transfection efficiency, cells were co-transfected with pCMV-βgal. For each well, 0.3 μg of the luciferase reporter vector phPES2(−1432/+59), 0.3 μg of the gene of interest (pcDNA3.1-S1p2 or pcDNA3.1-S1p1) and 25 ng of pCMV-βgal mixed with Lipofectin 2000 (Invitrogen) were introduced into the cells as described by the manufacturer. 24 hours after transfection, cells were treated with PMA (100 nm) for 5 hours, if necessary. Cells were harvested and luciferase and β-galactosidase activity were determined with Luciferase assay system (Promega) and Western-light and western-star system (Applied Biosystems) respectively. The amount of plasmid DNA was made constant by adding pcDNA 3.1 and luciferase activity was normalized to μg of protein content.
In addition, it was tested if S1P2 receptor can induce the transcription of the COX-2 gene. For this experiment, the human COX-2 promoter (phPES2) driven reporter activity was measured in transfected endothelial cells. […]
Background: A reporter such as luciferase makes a cellular process visible.

In test [2] the test system is Bovine retinal endothelial cells. The test can be described thus: Boyden chamber cell migration assay, S1P-stimulated. The format is cell-based. The note with it: 1 μM, S1P 100 nM. Here is the method:
Bovine retinal endothelial cells were tested to see if JTE013, a specific S1P2 receptor antagonist, would influence normal endothelial cell functions, such as cell migration stimulated by S1P. […] In contrast, VPC44116, a specific inhibitor of S1P1 receptor blocked normal endothelial cell migration stimulated by S1P in these cells.

Consider `CCCCCCCCCCCCCC(=O)O[C@@H]1[C@@H](C)[C@@]2(O)[C@@H](C=C(CO)C[C@]3(O)C(=O)C(C)=C[C@@H]23)[C@@H]2C(C)(C)[C@]12OC(C)=O` [PMA], for which the “induction of phPES2 (−1432/+59) promoter activity” value in test [1] was 1.83 fold.

For the compound `CCCCCCCCc1cccc(NC(=O)[C@H](N)CCP(=O)(O)O)c1` [VPC44116], the “endothelial cell migration stimulated by S1P” value in test [2] is “blocked”.

Values taken from patent US20090004207A1, “Methods and Compositions for Inhibiting Pathological Angiogenesis in the Eye” (priority 2007, published 2009).
